Laboratory results: PMC9146984, “A Novel Proline-Rich Cathelicidin from the Alpaca Vicugna pacos with Potency to Combat Antibiotic-Resistant Bacteria: Mechanism of Action and the Functional Role of the C-Terminal Region” (Membranes, 2022)
Values after ≈ are worked out from the molar mass of the structure shown. Where a SMILES comes first, the peptide text is derived from it.

Legend:
Cytotoxicity (MTT assay) = assay type: cell-based, human; conditions: human
Protocol: Hemolytic activity of the peptides was tested against the fresh suspension of human red blood cells (hRBC) using the hemoglobin release assay as described previously. Two experiments were performed with the hRBC from blood samples of independent donors. The quantitative data were represented as average means with standard deviations. The colorimetric 3-(4,5-dimethylthiazol-2-yl)-2,5-diphenyltetrazolium bromide (MTT) dye reduction assay was used to determine the cytotoxicity of the peptides against transformed human embryonic kidney cells (HEK293T). 10^4 cells per well in Dulbecco’s modified Eagle’s medium (DMEM/F12) supplemented with 10% fetal bovine serum (FBS; Invitrogen, Waltham, MA, USA) were placed into 96-well plates and then cultured in the CO2-incubator (5% CO2, 37 °C). After the media were removed, the peptides were dissolved in 100 µL of the same medium and added to cell cultures at different final concentrations. 20 h later, 20 μL of MTT (5 mg/mL; Sigma, St. Louis, MO, USA) was added to each well, and the plates were incubated for 4 h at 37 °C. Then, the media were discarded and a 100 µL dimethyl sulfoxide-isopropanol mixture at a ratio of 1:1 (v/v) was added to each well to dissolve the crystallized formazan. The absorbance at 570 nm was measured by a microplate reader AF2200 (Eppendorf, Hamburg, Germany). The optical density in the wells containing cells cultured without the peptides was assumed to represent 100% cell viability. Two independent experiments were performed for each peptide.

P. aeruginosa ATCC 27853 = assay: Antimicrobial assay (MIC); assay type: cell-based, Pseudomonas aeruginosa; conditions: Mueller-Hinton broth supplemented with 0.9% NaCl
Protocol: (§1) The reduction of resazurin to resorufin was measured.

P. aeruginosa PAO1 = assay: Antimicrobial assay (MIC); assay type: cell-based, Pseudomonas aeruginosa; conditions: Mueller-Hinton broth supplemented with 0.9% NaCl
Protocol: as §1

[1] = tested on: E. coli ML-35p cytoplasmic membrane; assay: Cytoplasmic membrane permeabilization (ONPG hydrolysis); assay type: cell-based, Escherichia coli
Protocol: To examine the ability of the peptides to affect the barrier function of the cytoplasmic bacterial membrane, we slightly modified the previously described procedure with the use of the E. coli ML-35p strain constitutively expressing cytoplasmic β-galactosidase but lacking lactose permease. The state of the E. coli ML-35p inner membrane was assessed based on its permeability to chromogenic marker o-nitrophenyl-β-D-galactopyranoside (ONPG, AppliChem, Darmstadt, Germany), which is the β-galactosidase substrate. The cells were incubated in the trypticase soy broth (TSB) for 16 h at 37 °C, washed three times with phosphate-buffered saline (PBS, pH 7.4) to remove residual growth media, adjusted to the concentration of 2.5 × 10^8 CFU/mL, and stored on ice until used. The assay was performed in PBS as well. The final concentration of E. coli ML-35p cells was 2.5 × 10^7 CFU/mL. The concentration of ONPG was 2.5 mM. Peptide samples were placed in the wells of a 96-well plate with a non-binding surface (NBS, Corning #3641), and the optical density (OD) of the solution rose due to the appearance of o-nitrophenol was measured at 405 nm using a microplate reader AF2200 (Eppendorf, Hamburg, Germany). The final volume in each well was 200 µL. Assays were performed at 37 °C under stirring at 500 rpm. Control experiments were performed under the same conditions without adding a peptide. Two independent experiments were performed, and the curve pattern was similar.

[2] = tested on: panel of reference bacterial pathogens and antibiotic-resistant clinical isolates; conditions: Mueller–Hinton broth supplemented with 0.9% NaCl
Protocol: Bacterial test cultures were grown in the Mueller-Hinton broth (MH; Sigma, St. Louis, MO, USA) at 37 °C to mid-log phase and then diluted with the 2× MH medium supplemented with 1.8% NaCl or without salt so that to reach a final cell concentration of 10^6 CFU/mL. 50 µL of the obtained bacterial suspension were added to aliquots of 50 µL of the peptide solutions serially diluted with sterilized 0.1% bovine serum albumin (BSA) in 96-well flat-bottom polystyrene microplates (Eppendorf #0030730011, Hamburg, Germany). […] To verify MIC values, the respiratory activity of the bacteria was determined. Briefly, 20 µL of 0.1 mg/mL resazurin (a redox indicator; Sigma, St. Louis, MO, USA) was added to the wells after 24 h of incubation, and the plate was incubated for an additional two hours. The reduction of resazurin to resorufin was measured. […] The results were expressed as the median values determined based on at least three independent experiments performed in triplicate.

primary monocytes = assay: Cytokine response (multiplex xMAP immunoassay); assay type: cell-based, human; conditions: 2 µM peptide, 24 h
Protocol: (§2) Acute monocytic leukemia THP-1 line (ATCC TIB-202) was cultured in complete RPMI 1640 medium (Invitrogen, Waltham, MA, USA) containing 10% FBS, 1× antibiotic-antimycotic solution (Invitrogen, Waltham, MA, USA), and 0.05 mM β-mercaptoethanol, in the CO2-incubator (5% CO2, 37 °C). THP-1 cells were differentiated into proinflammatory macrophages (MΦ1) according to the previously reported protocol. Primary peripheral blood mononuclear cells (PBMC) collected from a healthy donor were purchased from American Type Culture Collection (ATCC PCS-800-011), thawed, and seeded into a 96-well plate one day prior to the experiment at a density of 2 × 10^5 cells/well. Two different cell subpopulations (monocytes and T-/B-/NK-lymphocytes) were isolated from PBMC based on their adherence ability. Macrophages MΦ1 were washed out and seeded into 96-well plates at a density of 10^5 cells/well one day prior to the experiment. The next day medium in each well was replaced by a fresh complete RPMI 1640 medium with or without 2 μM of cathelicidin (VicBac[1–22] or VicBac[1–39]). Cell cultures were kept in a CO2 incubator (5% CO2, 37 °C) for 24 h. Culture supernatants were collected 24 h later and stored at −70 °C degrees less than one week prior to the assessment of analytes. 27 analytes were measured at a protein level by multiplex xMAP technology using the MILLIPLEX MAP Human Cytokine/Chemokine Magnetic Bead Immunology Panel kit (HCYTOMAG-60K-27, Merck, Darmstadt, Germany): eotaxin-1/CCL11, TGFα, GM-CSF, IFNα2, IFNγ, IL-10, IL-12p40, IL-12p70, IL-13, IL-15, sCD40L, IL-17A, IL-1RA, IL-1α, IL-9, IL-1β, IL-2, IL-3, IL-4, IL-5, IL-6, IL-7, IL-8/CXCL8, IP-10/CXCL10, RANTES/CCL5, TNFα, TNFβ. Multiplex-based assay read-out was performed using the MAGPIX system (Merck) with the xPONENT 4.2 software (Merck, Darmstadt, Germany) in accordance with the manufacturer’s instruction with overnight incubation of the samples with primary antibodies. The final analysis was carried out with the MILLIPLEX Analyst v5.1 software (Merck). Measurements were performed twice for each sample. The release of the analytes in control and experimental samples were compared by unpaired two-sample t-test using GraphPad Prism v.8.0.1. The p values ≤ 0.05 were considered significant.

PBMC = assay: Cytokine response (multiplex xMAP immunoassay); assay type: cell-based, human; conditions: 2 µM peptide, 24 h
Protocol: as §2

[3] = tested on: proinflammatory macrophages (MΦ1) from THP-1; assay: Cytokine response (multiplex xMAP immunoassay); assay type: cell-based, human; conditions: 2 µM peptide, 24 h
Protocol: as §2

T-/B-/NK-lymphocytes = assay: Cytokine response (multiplex xMAP immunoassay); assay type: cell-based, human; conditions: 2 µM peptide, 24 h
Protocol: as §2

Structure (SMILES): CC[C@H](C)[C@H](NC(=O)[C@H](CCCNC(=N)N)NC(=O)[C@@H](N)CCCNC(=N)N)C(=O)N[C@@H](CCCNC(=N)N)C(=O)N[C@@H](CCCNC(=N)N)C(=O)N1CCC[C@H]1C(=O)N[C@@H](CCCNC(=N)N)C(=O)N[C@@H](CC(C)C)C(=O)N1CCC[C@H]1C(=O)N[C@@H](CCCNC(=N)N)C(=O)N1CCC[C@H]1C(=O)N[C@@H](CCCNC(=N)N)C(=O)N[C@H](C(=O)N1CCC[C@H]1C(=O)N[C@@H](CCCNC(=N)N)C(=O)N1CCC[C@H]1C(=O)N[C@@H](CCCNC(=N)N)C(=O)N[C@H](C(=O)N1CCC[C@H]1C(=O)N1CCC[C@H]1C(=O)N[C@@H](CCCNC(=N)N)C(=O)N[C@H](C(=O)N1CCC[C@H]1C(=O)N[C@@H](CCCNC(=N)N)C(=O)N1CCC[C@H]1C(=O)N[C@H](C(=O)N[C@@H](CC(C)C)C(=O)N1CCC[C@H]1C(=O)N1CCC[C@H]1C(=O)N1CCC[C@H]1C(=O)N[C@@H](CCCNC(=N)N)C(=O)N[C@H](C(=O)N1CCC[C@H]1C(=O)N[C@@H](Cc1ccccc1)C(=O)N1CCC[C@H]1C(=O)N[C@@H](CCCNC(=N)N)C(=O)N[C@@H](Cc1ccccc1)C(=O)N1CCC[C@H]1C(=O)N[C@@H](CCCNC(=N)N)C(N)=O)C(C)C)C(C)C)[C@@H](C)CC)[C@@H](C)CC)C(C)C [VicBac[1-39]] (H-RRIRRPRLPRPRVPRPRIPPRIPRPVLPPPRVPFPRFPR-NH2; N-terminus assumed)
- IC50 at 20 h (Cytotoxicity (MTT assay)): ~100 µM
- MIC, P. aeruginosa ATCC 27853 (P. aeruginosa ATCC 27853): 4 µM (≈ 19.3 µg/mL)
- MIC, P. aeruginosa PAO1 (P. aeruginosa PAO1): 8 µM (≈ 38.5 µg/mL)
- membrane damage effect at concentrations near the MIC value ([1]; E. coli ML-35p, ONPG, near MIC 0.5 µM): negligible membrane damage effect
- effect on E. coli ML-35p cytoplasmic membrane permeability for ONPG ([1]; PBS, 37 °C, OD405, 2.5 mM ONPG, two independent experiments): quite moderate effect
- MIC values, in most cases, against panel of reference pathogens and clinical isolates [2]: 0.25 to 8 µM
- Production of TNFα by monocytes (primary monocytes; control 18.47 pg/mL, two biological replications): 11.41 pg/mL
- IL-1RA on primary monocytes (primary monocytes; control 163.77 pg/mL): 37.82 pg/mL
- Production of RANTES/CCL5 on primary monocytes (primary monocytes; control 284.28 pg/mL): 71.5 pg/mL
- IL-1RA on PBMC (PBMC; control 95.52 pg/mL): 18.79 pg/mL
- Production of RANTES/CCL5 on PBMC (PBMC; control 286.63 pg/mL): 54.72 pg/mL
- TNFα production by macrophages ([3]; control 12.94 pg/mL, significance level quite low): 28.68 pg/mL
- IL-1RA on pro-inflammatory macrophages ([3]; control 25.21 pg/mL): 9.47 pg/mL
- CXCL10/IP-10 production in the T/B/NK culture (T-/B-/NK-lymphocytes): elevated
